PubChem BioAssay AID328 (DTP/NCI, 2004)
Values joined by “and” are separate entries in the source; they are usually repeats but may differ in a detail not shown here. Identical values can stand only once. Toxic doses and inconclusive results are not listed. The calls were made as follows: active = survival T/C of 150% or more; inactive = T/C below 125% in these data.

System: BDF1 mice, P388 leukemia ip, median survival T/C
Assay: NCI In Vivo Anticancer Drug Screen. Data for tumor model P388 Leukemia (intraperitoneal) in B6D2F1 (BDF1) mice
Settings: endpoint: median survival time, higher = longer survival
Summary of the method: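 Read-out is survival of treated animals expressed relative to the vehicle group, as a T/C ratio.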

[1] = dose: 25.0 mg/kg/injection, schedule: Q04DX003 (ip), vehicle: saline
[2] = dose: 50.0 mg/kg/injection, schedule: Q04DX003 (ip), vehicle: saline
[3] = dose: 100.0 mg/kg/injection, schedule: Q01DX009 (ip), vehicle: Klucel (hydroxypropylcellulose) (HPC)
[4] = dose: 200.0 mg/kg/injection, schedule: Q01DX009 (ip), vehicle: Klucel (hydroxypropylcellulose) (HPC)
[5] = dose: 400.0 mg/kg/injection, schedule: Q01DX009 (ip), vehicle: Klucel (hydroxypropylcellulose) (HPC)
[6] = dose: 100.0 mg/kg/injection, schedule: Q04DX003 (ip), vehicle: saline with Tween-80
[7] = dose: 200.0 mg/kg/injection, schedule: Q04DX003 (ip), vehicle: saline with Tween-80
[8] = dose: 50.0 mg/kg/injection, schedule: Q01DX009 (ip), vehicle: saline with Tween-80
[9] = dose: 100.0 mg/kg/injection, schedule: Q01DX009 (ip), vehicle: saline with Tween-80

Measured: T/C

C=C(CCC(C(=O)O)C1CCC2(C)C3=C(CCC12C)C1(C)CCC(O)C(C)(C)C1CC3)C(C)C (stereo not drawn)
inactive: dose: 12.5 mg/kg/injection, schedule: Q01DX009 (sc), vehicle: steriod suspending solution 100 % of control | dose: 25.0 mg/kg/injection, schedule: Q01DX009 (sc), vehicle: steriod suspending solution 99 % of control | dose: 50.0 mg/kg/injection, schedule: Q01DX009 (ip), vehicle: steriod suspending solution 87 % of control | dose: 50.0 mg/kg/injection, schedule: Q01DX009 (sc), vehicle: steriod suspending solution 98 % of control | dose: 100.0 mg/kg/injection, schedule: Q01DX009 (ip), vehicle: steriod suspending solution 92 % of control | dose: 100.0 mg/kg/injection, schedule: Q01DX009 (sc), vehicle: steriod suspending solution 101 % of control and 106 % of control | dose: 200.0 mg/kg/injection, schedule: Q01DX009 (sc), vehicle: steriod suspending solution 91 % of control

C=C1CC[N+]2(CC(C)C)CCCC12 (stereo not drawn)
inactive: dose: 12.5 mg/kg/injection, schedule: Q04DX003 (ip), vehicle: saline 107 % of control | [1] 102 % of control | [2] 106 % of control

Nc1nc(N)nc(N)n1
inactive: [3] 90 % of control | [4] 90 % of control | [5] 100 % of control | dose: 800.0 mg/kg/injection, schedule: Q01DX009 (ip), vehicle: Klucel (hydroxypropylcellulose) (HPC) 100 % of control | dose: 2000.0 mg/kg/injection, schedule: Q01DX009 (ip), vehicle: Klucel (hydroxypropylcellulose) (HPC) 95 % of control

CC1NC(=O)NC1CCCCCC(=O)O (stereo not drawn)
inactive: [3] 95 % of control | dose: 100.0 mg/kg/injection, schedule: Q04DX003 (ip), vehicle: Klucel (hydroxypropylcellulose) (HPC) 116 % of control | [4] 90 % of control | dose: 200.0 mg/kg/injection, schedule: Q04DX003 (ip), vehicle: Klucel (hydroxypropylcellulose) (HPC) 104 % of control | [5] 95 % of control | dose: 400.0 mg/kg/injection, schedule: Q04DX003 (ip), vehicle: Klucel (hydroxypropylcellulose) (HPC) 91 % of control

O=C(CS)OCCOC(=O)CS
inactive: dose: 25.0 mg/kg/injection, schedule: Q01DX009 (ip), vehicle: Klucel (hydroxypropylcellulose) (HPC) 104 % of control | [1] 109 % of control | dose: 50.0 mg/kg/injection, schedule: Q01DX009 (ip), vehicle: Klucel (hydroxypropylcellulose) (HPC) 100 % of control | [2] 104 % of control | [3] 95 % of control | dose: 100.0 mg/kg/injection, schedule: Q04DX003 (ip), vehicle: saline 95 % of control

OCC12CCCCC1CC1(CC2)OCCO1 (stereo not drawn)
inactive: dose: 100.0 mg/kg/injection, schedule: Q01DX009 (ip), vehicle: saline 92 % of control | [6] 95 % of control | [7] 90 % of control | dose: 400.0 mg/kg/injection, schedule: Q01DX009 (ip), vehicle: saline 96 % of control | dose: 400.0 mg/kg/injection, schedule: Q04DX003 (ip), vehicle: saline with Tween-80 90 % of control

OCCOCCN1CCN(CC/C=C2\c3ccccc3Sc3ccc(C(F)(F)F)cc32)CC1
inactive: dose: 0.75 mg/kg/injection, schedule: Q01DX009 (ip), vehicle: saline 95 % of control | dose: 1.5 mg/kg/injection, schedule: Q01DX009 (ip), vehicle: saline 90 % of control | dose: 3.0 mg/kg/injection, schedule: Q01DX009 (ip), vehicle: saline 95 % of control

CC(=O)c1ccc(C(=O)CC(O)(C(F)(F)F)C(F)(F)F)cc1
inactive: dose: 50.0 mg/kg/injection, schedule: Q01DX009 (ip), vehicle: other 104 % of control | dose: 50.0 mg/kg/injection, schedule: Q04DX003 (ip), vehicle: other 90 % of control | dose: 100.0 mg/kg/injection, schedule: Q01DX009 (ip), vehicle: other 104 % of control | dose: 100.0 mg/kg/injection, schedule: Q04DX003 (ip), vehicle: other 95 % of control

O=[N+]([O-])c1ccc(N/N=C(\COc2ccccc2)c2ccccc2)c([N+](=O)[O-])c1
inactive: dose: 6.25 mg/kg/injection, schedule: Q01DX001 (ip), vehicle: saline with Tween-80 95 % of control | dose: 12.5 mg/kg/injection, schedule: Q01DX001 (ip), vehicle: saline with Tween-80 100 % of control | dose: 25.0 mg/kg/injection, schedule: Q01DX001 (ip), vehicle: saline with Tween-80 104 % of control

ClCCOCCCl
inactive: [8] 115 % of control | [9] 124 % of control

NC(=O)c1cc(=S)[nH]c2nc(Cl)nc(N)c12
inactive: dose: 100.0 mg/kg/injection, schedule: Q04DX002 (ip), vehicle: saline with Tween-80 120 % of control

O=C(Nc1cccc(C(F)(F)F)c1)C12CC3CC(CC(C3)C1)C2
inactive: dose: 12.5 mg/kg/injection, schedule: Q01DX009 (ip), vehicle: saline with Tween-80 92 % of control | [8] 87 % of control | [9] 90 % of control

C=CCN(CC=C)CCN(CC)CC
inactive: dose: 6.25 mg/kg/injection, schedule: Q01DX009 (ip), vehicle: saline 111 % of control | dose: 12.5 mg/kg/injection, schedule: Q01DX009 (ip), vehicle: saline 101 % of control | dose: 25.0 mg/kg/injection, schedule: Q01DX009 (ip), vehicle: saline 109 % of control | dose: 50.0 mg/kg/injection, schedule: Q01DX009 (ip), vehicle: saline 101 % of control

CCC1CC2CCC(c3cc4c(cc3OC)N(C)C3C(O)(C(=O)OC)C(OC(C)=O)C5(CC)C=CCN6CCC43C65)c3[nH]c4ccccc4c3CCN(C1)C2 (stereo not drawn)
inactive: dose: 0.03 mg/kg/injection, schedule: Q01DX010 (ip), vehicle: saline 90 % of control | dose: 0.06 mg/kg/injection, schedule: Q01DX010 (ip), vehicle: saline 100 % of control | dose: 0.13 mg/kg/injection, schedule: Q01DX010 (ip), vehicle: saline 90 % of control | dose: 0.25 mg/kg/injection, schedule: Q01DX010 (ip), vehicle: saline 100 % of control | dose: 0.5 mg/kg/injection, schedule: Q01DX010 (ip), vehicle: saline 95 % of control

O=C(O)CC/C(=N/OCc1cc2c(cc1Cl)OCO2)C(=O)O
inactive: dose: 100.0 mg/kg/injection, schedule: Q04DX003 (ip), vehicle: saline sonified 100 % of control | dose: 200.0 mg/kg/injection, schedule: Q04DX003 (ip), vehicle: saline sonified 100 % of control | dose: 400.0 mg/kg/injection, schedule: Q04DX003 (ip), vehicle: saline sonified 109 % of control

COc1cc[n+]([O-])cc1/C=C/c1c[n+]([O-])ccc1OC
inactive: dose: 25.0 mg/kg/injection, schedule: Q04DX003 (ip), vehicle: saline with Tween-80 94 % of control | dose: 50.0 mg/kg/injection, schedule: Q04DX003 (ip), vehicle: saline with Tween-80 119 % of control | [6] 103 % of control | [7] 108 % of control

CCOC(=O)/C=C(\C)Nc1ccc(NC(C)=O)cc1
inactive: dose: 25.0 mg/kg/injection, schedule: Q01DX009 (ip), vehicle: water 91 % of control | dose: 50.0 mg/kg/injection, schedule: Q01DX009 (ip), vehicle: water 89 % of control | dose: 50.0 mg/kg/injection, schedule: Q04DX003 (ip), vehicle: water 106 % of control | dose: 100.0 mg/kg/injection, schedule: Q01DX009 (ip), vehicle: water 94 % of control | dose: 100.0 mg/kg/injection, schedule: Q04DX003 (ip), vehicle: water 111 % of control | dose: 200.0 mg/kg/injection, schedule: Q01DX009 (ip), vehicle: water 110 % of control | dose: 200.0 mg/kg/injection, schedule: Q04DX003 (ip), vehicle: water 120 % of control | dose: 400.0 mg/kg/injection, schedule: Q01DX009 (ip), vehicle: water 94 % of control | dose: 400.0 mg/kg/injection, schedule: Q04DX003 (ip), vehicle: water 103 % of control
